Data reported in US20160213742A1, “COMPOSITIONS AND METHODS FOR THE TREATMENT OF FUNGAL INFECTIONS” (priority 2013, published 2016).
Values after ≈ are worked out from the molar mass of the structure shown.

What was measured:
Type in all cases: cell-based
[1] = system: C. albicans ATCC 90028; test: microbe, parasite or virus in culture; settings: ATCC 90028, pH 7
Experimental: (§1) The test organisms consisted of strains from the Micromyx collection. Reference isolates were originally received from the American Type Culture Collection (ATCC; Manassas, Va.). Organisms received at Micromyx were initially streaked for isolation on Sabouraud dextrose or potato dextrose agar. Colonies were picked by swab from the medium and resuspended in the appropriate broth containing cryoprotectant. The suspensions were aliquoted into cryogenic vials and maintained at −80° C. Prior to testing, Candida isolates were streaked from the frozen vials on Sabouraud dextrose agar. The yeast isolates were incubated at overnight at 35° C. before use. The fungal isolates were incubated at least 7 days on Sabouraud dextrose agar slants at 35° C. before harvesting.
(§2) Isolates were tested in RPMI medium (Catalog No. SH30011.04; Lot No. AWA92121B; HyClone Labs, Logan, Utah) which was prepared according to CLSI guidelines. The pH of the medium was adjusted to 7.0 with 1 N NaOH. The medium was sterile filtered using a 0.2 μm PES filter and stored at 4° C. until used.
(§3) The MIC assay method employed automated liquid handlers to conduct serial dilutions and liquid transfers. Automated liquid handlers included the Multidrop 384 (Labsystems, Helsinki, Finland), Biomek 2000 and Biomek FX (Beckman Coulter, Fullerton Calif.). The wells in columns 2-12 in standard 96-well microdilution plates (Costar 3795) were filled with 150 μl of the correct diluent (50% DMSO for investigational compounds, 100% DMSO for comparator compounds). These would become the mother plates' from which ‘daughter’ or test plates would be prepared. Stocks were diluted to 40× the desired top concentration in the test plates in the indicated solvent, and 300 μL of the 40× stock was dispensed into the appropriate well in Column 1 of the mother plates. The Biomek 2000 was used to make serial serial 2-fold dilutions through Column 11 in the “mother plate”. The wells of Column 12 contained no drug and served as the organism growth control wells.
(§4) The daughter plates were loaded with 185 μL per well of RPMI described above using the Multidrop 384. The daughter plates were prepared using the Biomek FX which transferred 5 μL of drug solution from each well of a mother plate to the corresponding well of the daughter plate in a single step.
(§5) A standardized inoculum of each organism was prepared. For Candida, colonies were picked from the streak plate and a suspension was prepared in RPMI medium equal to a 0.5 McFarland standard, then diluted 1:100 in RPMI and transferred to compartments of sterile reservoirs divided by length (Beckman Coulter). For the Aspergillus isolates, previously prepared and quantitated suspensions were used to make dilutions in RPMI to reach 20× the final concentration. These dilutions were also transferred to compartments of sterile reservoirs divided by length (Beckman Coulter). The final concentration of the Aspergillus isolates was approximately 0.2-2.5×10^4 CFU/mL.
(§6) The Biomek 2000 was used to inoculate the plates. Daughter plates were placed on the Biomek 2000 work surface reversed so that inoculation took place from low to high drug concentration. The Biomek 2000 delivered 10 μL of standardized inoculum into each well. Thus, the wells of the daughter plates ultimately contained 185 μL of RPMI, 5 μL of drug solution, and 10 μL of inoculum. The final concentration of DMSO in the test well was 2.5% for the evaluated comparators and 1.25% for the investigational agents.
(§7) Plates were stacked 3 high, covered with a lid on the top plate, placed into plastic bags, and incubated at 35° C. for approximately 24-48 hr prior to reading. Plates were read when inoculum was confluent in growth wells. Plates were viewed from the bottom using a plate viewer. […] MICs were read where visible growth of the organism was inhibited. MECs were read where the growth shifted to a small, rounded, compact hyphal form as compared to the hyphal growth seen in the growth control well.

[2] = system: C. glabrata ATCC 90030; test: microbe, parasite or virus in culture; settings: ATCC 90030, pH 7
Experimental: as §1, §2, §3, §4, §5, §6, §7

[3] = system: C. krusei ATCC 14243; test: microbe, parasite or virus in culture; settings: ATCC 14243, pH 7
Experimental: as §1, §2, §3, §4, §5, §6, §7

[4] = system: C. parapsilosis ATCC 22019; test: microbe, parasite or virus in culture; settings: ATCC 22019, pH 7
Experimental: as §1, §2, §3, §4, §5, §6, §7

[5] = system: A. flavus MX 5948; test: MEC assay (Example 31); settings: RPMI pH 7.0, 35° C., 24-48 hr
Experimental: as §1, §2, §3, §4, §5, §6, §7

[6] = system: A. fumigatus ATCC 13073; test: MEC assay (Example 31); settings: RPMI pH 7.0, 35° C., 24-48 hr
Experimental: as §1, §2, §3, §4, §5, §6, §7

[7] = system: A. fumigatus MX 5944; test: MEC assay (Example 31); settings: RPMI pH 7.0, 35° C., 24-48 hr
Experimental: as §1, §2, §3, §4, §5, §6, §7

[8] = system: A. fumigatus MYA-3626; test: MEC assay (Example 31); settings: RPMI pH 7.0, 35° C., 24-48 hr
Experimental: as §1, §2, §3, §4, §5, §6, §7

[9] = system: A. fumigatus MYA-4609; test: MEC assay (Example 31); settings: RPMI pH 7.0, 35° C., 24-48 hr
Experimental: as §1, §2, §3, §4, §5, §6, §7

[10] = system: Neutrophils purified from human peripheral blood; test: Human Neutrophil Transwell Migration Assay; settings: 37° C., 45 minutes, % of the maximum migration possible
From the text: Neutrophils were purified from human peripheral blood utilizing PolymorphPrep. Red blood cells were lysed with a lysis buffer and the cells were washed, counted and resuspended in assay buffer. Neutrophils (approximately 50,000 to 100,000 in number) were placed over 5-micon pore sized transwell plates in 24-well format with test compounds in the bottom chamber of each well. A negative control of media alone in the bottom chamber was set up in triplicate. A positive control where the neutrophils were added directly to the bottom well was set up in triplicate.
The plates were incubated at 37° C. for 45 minutes to allow for migration. After this time, migration was confirmed visually and then an aliquot (⅙^th of total cells) from each well was taken for ATP detection via luminescence with ATPlite (PerkinElmer) to quantify the number of migrated cells. The averaged reading for random migration detected in the negative control was subtracted from all readings to obtain the corrected migration number. These numbers were then divided by the averaged reading from the positive control to get the % Neutrophil Migration of the maximum migration possible.

Row | Compound | MIC [1] | MIC [2] | MIC [3] | MIC [4] | MEC [5] | MEC [6] | MEC [7] | MEC [8] | MEC [9] | % Neutrophil Migration ([10]; conc 0.001 μg/mL) | % Neutrophil Migration ([10]; conc 0.01 μg/mL) | % Neutrophil Migration ([10]; conc 0.1 μg/mL) | % Neutrophil Migration ([10]; conc 1 μg/mL) | % Neutrophil Migration ([10]; conc 10 μg/mL)
1 | CC[C@H](C)C[C@H](C)CCCCCCCCC(=O)N[C@H]1C[C@@H](O)[C@@H](NCCN)NC(=O)[C@@H]2[C@@H](O)CCN2C(=O)[C@H]([C@H](O)CCNC(=O)[C@@H](N)CCCCNC(=O)[C@H](Cc2ccccc2)NC(=O)[C@H](CC(C)C)NC(=O)[C@H](CCSC)NC=O)NC(=O)[C@H]([C@H](O)[C@@H](O)c2ccc(O)cc2)NC(=O)[C@@H]2C[C@@H](O)CN2C(=O)[C@H]([C@@H](C)O)NC1=O [Compound 15] | 1 µg/mL (≈ 0.609 µM) | 2 µg/mL (≈ 1.22 µM) | 8 µg/mL (≈ 4.87 µM) | 16 µg/mL (≈ 9.75 µM) | 0.12 µg/mL | 0.12 µg/mL | 0.12 µg/mL | 0.12 µg/mL | 0.12 µg/mL | 9.6% | 47.3% | 13.0% | −6.3% | −7.0%
2 | CC[C@H](C)C[C@H](C)CCCCCCCCC(=O)N[C@H]1C[C@@H](O)[C@@H](NCCN)NC(=O)[C@@H]2[C@@H](O)CCN2C(=O)[C@H]([C@H](O)CCNC(=O)[C@H](CCSC)NC=O)NC(=O)[C@H]([C@H](O)[C@@H](O)c2ccc(O)cc2)NC(=O)[C@@H]2C[C@@H](O)CN2C(=O)[C@H]([C@@H](C)O)NC1=O [Compound 26] | 0.25 µg/mL (≈ 0.2 µM) | 1 µg/mL (≈ 0.798 µM) | 4 µg/mL (≈ 3.19 µM) | 4 µg/mL (≈ 3.19 µM) | ≦0.03 μg/mL | ≦0.03 μg/mL | ≦0.03 μg/mL | ≦0.03 μg/mL | ≦0.03 μg/mL | −3.4% | −3.4% | −5.1% | −4.1% | 15.7%
3 | CC[C@H](C)C[C@H](C)CCCCCCCCC(=O)N[C@H]1C[C@@H](O)[C@@H](NCCN)NC(=O)[C@@H]2[C@@H](O)CCN2C(=O)[C@H]([C@H](O)CCNC(=O)[C@H](CC(C)C)NC(=O)[C@H](CCSC)NC=O)NC(=O)[C@H]([C@H](O)[C@@H](O)c2ccc(O)cc2)NC(=O)[C@@H]2C[C@@H](O)CN2C(=O)[C@H]([C@@H](C)O)NC1=O [Compound 27] | 2 µg/mL (≈ 1.46 µM) | 2 µg/mL (≈ 1.46 µM) | 8 µg/mL (≈ 5.86 µM) | 16 µg/mL (≈ 11.7 µM) | 0.06 µg/mL | 8 µg/mL | 0.12 µg/mL | 0.25 µg/mL | 0.12 µg/mL | −1.6% | 3.4% | −4.2% | −1.6% | 37.0%
4 | CC[C@H](C)C[C@H](C)CCCCCCCCC(=O)N[C@H]1C[C@@H](O)[C@@H](NCCN)NC(=O)[C@@H]2[C@@H](O)CCN2C(=O)[C@H]([C@H](O)CCNC(=O)[C@H](CCSC)NC(=O)[C@H](CC(C)C)NC(=O)[C@H](CCSC)NC=O)NC(=O)[C@H]([C@H](O)[C@@H](O)c2ccc(O)cc2)NC(=O)[C@@H]2C[C@@H](O)CN2C(=O)[C@H]([C@@H](C)O)NC1=O [Compound 28] | 1 µg/mL (≈ 0.668 µM) | 2 µg/mL (≈ 1.34 µM) | 8 µg/mL (≈ 5.34 µM) | 8 µg/mL (≈ 5.34 µM) | 0.12 µg/mL | 0.25 µg/mL | 0.25 µg/mL | 0.25 µg/mL | 0.25 µg/mL | −0.4% | 2.2% | 43.4% | −0.2% | −7.4%
5 | CC[C@H](C)C[C@H](C)CCCCCCCCC(=O)N[C@H]1C[C@@H](O)[C@@H](NCCN)NC(=O)[C@@H]2[C@@H](O)CCN2C(=O)[C@H]([C@H](O)CCNC(=O)[C@H](CO)NC(=O)[C@H](CC(C)C)NC(=O)[C@H](CCSC)NC=O)NC(=O)[C@H]([C@H](O)[C@@H](O)c2ccc(O)cc2)NC(=O)[C@@H]2C[C@@H](O)CN2C(=O)[C@H]([C@@H](C)O)NC1=O [Compound 29] | 2 µg/mL (≈ 1.38 µM) | 8 µg/mL (≈ 5.51 µM) | 32 µg/mL (≈ 22 µM) | >32 µg/mL | 0.25 µg/mL | 0.5 µg/mL | 0.25 µg/mL | 0.25 µg/mL | 0.25 µg/mL | 1.4% | 0.1% | 2.2% | 11.0% | 8.4%
